Reference: ChEMBL document CHEMBL1201862, “PubChem BioAssay data set” (2004)
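Values below derive from 48-hour exposures of cells grown in 96-well plates, with endpoints linearly interpolated between the two concentrations bracketing the appropriate inhibition level. The concentration for 50% growth inhibition is given as GI50.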 Calls of active or inactive are those of the source. Cut-off read from the data, not from the text of the source: active = GI50 up to about 1.1 µM and inactive = higher.

Legend:
Test in all cases: NCI anticancer screen, dose series, 48 h
[1] = system: PC-3
[2] = system: ACHN
[3] = system: M14
[4] = system: NCI-H522
[5] = system: SNB-75
[6] = system: KM12
[7] = system: SW-620
[8] = system: HCC 2998
[9] = system: HCT-15
[10] = system: SK-MEL-2
[11] = system: IGROV-1
[12] = system: HT-29
[13] = system: Hs-578T
[14] = system: NCI/ADR-RES
[15] = system: NCI-H23
[16] = system: LOX IMVI
[17] = system: T47D
[18] = system: OVCAR-8
[19] = system: BT-549
[20] = system: CAKI-1
[21] = system: A498
[22] = system: EKVX
[23] = system: Malme-3M
[24] = system: RXF 393
[25] = system: MDA-N
[26] = system: UACC-62
[27] = system: 786-0
[28] = system: OVCAR-3
[29] = system: SF-539
[30] = system: SNB-19
[31] = system: MCF7
[32] = system: SF-268
[33] = system: MDA-MB-435
[34] = system: RPMI-8226
[35] = system: OVCAR-4
[36] = system: A549
[37] = system: COLO 205
[38] = system: MDA-MB-231
[39] = system: MOLT-4
[40] = system: K562
[41] = system: HOP-92
[42] = system: NCI-H460
[43] = system: SN12C
[44] = system: UACC-257
[45] = system: DU-145
[46] = system: SK-MEL-28
[47] = system: NCI-H226
[48] = system: HL-60
[49] = system: U-251
[50] = system: TK-10
[51] = system: SF-295
[52] = system: OVCAR-5
[53] = system: SK-MEL-5
[54] = system: UO-31
[55] = system: CCRF-CEM
[56] = system: HOP-62
[57] = system: SR
[58] = system: HCT-116
[59] = system: SK-OV-3

CN1CCN(CCCCN2c3ccccc3Sc3cc(N=[N+]=[N-])ccc32)CC1
GI50 [1]: 1820 nM (inactive) | GI50 [2]: 2150 nM (inactive) | GI50 [3]: 1720 nM (inactive) | GI50 [4]: 1700 nM (inactive) | GI50 [5]: 3390 nM (inactive) | GI50 [6]: 1840 nM (inactive) | GI50 [7]: 1980 nM (inactive) | GI50 [8]: 1390 nM (inactive) | GI50 [9]: 2280 nM | GI50 [10]: 2090 nM (inactive) | GI50 [11]: 1930 nM (inactive) | GI50 [12]: 1610 nM (inactive) | GI50 [13]: 1950 nM (inactive) | GI50 [14]: 2590 nM (inactive) | GI50 [15]: 6310 nM (inactive) | GI50 [16]: 1620 nM (inactive) | GI50 [17]: 9230 nM (inactive) | GI50 [18]: 1820 nM (inactive) | GI50 [19]: 7760 nM (inactive) | GI50 [20]: 2010 nM (inactive) | GI50 [21]: 9140 nM (inactive) | GI50 [22]: 5690 nM (inactive) | GI50 [23]: 1710 nM (inactive) | GI50 [24]: 2700 nM (inactive) | GI50 [25]: 3410 nM (inactive) | GI50 [26]: 2130 nM (inactive) | GI50 [27]: 1620 nM (inactive) | GI50 [28]: 2550 nM (inactive) | GI50 [29]: 3310 nM (inactive) | GI50 [30]: 3620 nM (inactive) | GI50 [31]: 1990 nM (inactive) | GI50 [32]: 6190 nM (inactive) | GI50 [33]: 1700 nM (inactive) | GI50 [34]: 2310 nM (inactive) | GI50 [35]: 2880 nM (inactive) | GI50 [36]: 1940 nM (inactive) | GI50 [37]: 1740 nM (inactive) | GI50 [38]: 1910 nM (inactive) | GI50 [39]: 1770 nM (inactive) | GI50 [40]: 1380 nM (inactive) | GI50 [41]: 1940 nM (inactive) | GI50 [42]: 1940 nM (inactive) | GI50 [43]: 2310 nM (inactive) | GI50 [44]: 1990 nM (inactive) | GI50 [45]: 4210 nM (inactive) | GI50 [46]: 1820 nM (inactive) | GI50 [47]: 5930 nM (inactive) | GI50 [48]: 2260 nM (inactive) | GI50 [49]: 2730 nM (inactive) | GI50 [50]: 1910 nM (inactive) | GI50 [51]: 2180 nM (inactive) | GI50 [52]: 12600 nM (inactive) | GI50 [53]: 1570 nM (inactive) | GI50 [54]: 586 nM (active) | GI50 [55]: 2140 nM (inactive) | GI50 [56]: 2490 nM (inactive) | GI50 [57]: 5500 nM (inactive) | GI50 [58]: 1620 nM (inactive) | GI50 [59]: 8490 nM (inactive)
